Series [1] relates to NCI-H358 cells expressing KRAS G12C mutant protein. The series is described as follows: Phospho-ERK1/2(THR202/TYR204) HTRF assay. The format is cell-based. The protocol:
The NCI-H358 cells in culture medium were seeded in 96-well plates at a concentration of 40,000 cells/well and then put in a 37° C./5% CO2 cell incubator to incubate overnight. […] After 2 hours incubation in a 37° C./5% CO2 cell incubator, the assay medium in 96-well plates was removed, then 50 μL of 1× blocking reagent-supplemented lysis buffer (Cisbio) was added and the plates were incubated at 25° C. for 45 min with shaking. 10 μL of cell lysates from the 96-well plates were transferred to a 384-well plate (Greiner) containing 2.5 μL/well HTRF® pre-mixed antibodies (Cisbio 64AERPEH). Incubate 4 hours at 25° C. and then read HTRF signals on Tecan Spark multimode microplate reader. The data were analyzed using a 4-parameter logistic model to calculate IC50 values.
In general terms: Time-resolved FRET reads energy transfer from a long-lived donor to a nearby acceptor.

Series [2] deals with SW837 (KRAS^G12C) xenograft. In words: Safety exploration in SW837 (KRAS G12C) xenograft model. The series is classed as in vivo. As to conditions: 400 mg/kg, po, QD for 22 days, female NOD SCID mice, FIG. 2. The protocol: SW837 (KRAS^G12C) cells (1.0E+07 cells) were injected subcutaneously into the right flank of female NOD SCID mice (6-8 weeks) in a mixture with PBS and Matrigel (Corning) (PBS/Matrigel=1:1(v/v)). Mice were monitored daily and caliper measurements began when tumors became visible. Tumor volume was calculated by measuring two perpendicular diameters using the following formula: (L*W^2)/2 in which L and W refer to the length and width tumor diameter respectively. After mice were grouped to study the efficacy, the remaining mice (n=8) were used to explore the safety. The mice were treated with 400 mg/kg Compound 2-1 (po, QD) for 22 days, and mice body weight was measured twice a week during treatment. From FIG. 2, it can be seen that the Compound 2-1 has good safety.

Broadly, the IC50 is the midpoint of a concentration-inhibition curve.

Regarding `C=CC(=O)N1CCN(c2nc(=O)n(-c3c(C)ccnc3C(C)C)c3nc(-c4c(N)c(F)c(F)c(F)c4F)c(F)cc23)[C@@H](C)C1` (atropisomer, axis not shown; (M)) [Compound 2-1, (M)-4-((S)-4-acryloyl-2-methylpiperazin-1-yl)-7-(2-amino-3,4,5,6-tetrafluorophenyl)-6-fluoro-1-(2-isopropyl-4-methylpyridin-3-yl)pyrido[2,3-d]pyrimidin-2(1H)-one], in series [1] (2 hours incubation, read-out: p-ERK IC50), the 50% inhibitory concentration (IC50) turned out to be 14.5 nM. Moreover, the “Inhibitory activity relative to the control compound Amg-510” value in series [1] (phospho-ERK1/2 HTRF assay) is listed as “about 2 times”. In series [2], the “Safety judged from mice body weight” value was “good safety”.
